In ChEMBL document CHEMBL1158502, “Gomphostenins: two new antimalarial compounds from the leaves of Gomphostemma niveum” (Bioorg Med Chem Lett, 2010):
≈ marks a conversion by molar mass, not a printed value.

Tests used:
[1] = tested on: Plasmodium falciparum; assay: Antiplasmodial activity against chloroquine-resistant Plasmodium falciparum in human B+ erythrocytes assessed as inhibition of schizont maturation after 24 hrs by conventional parasite culture method; format: functional, organism-based
[2] = tested on: Plasmodium falciparum; assay: Antiplasmodial activity against chloroquine-sensitive Plasmodium falciparum MRC-02 in human B+ erythrocytes assessed as inhibition of schizont maturation after 24 hrs by conventional parasite culture method; format: functional, organism-based; conditions: MRC-02, 24 h
[3] = tested on: Plasmodium falciparum; assay: Antiplasmodial activity against chloroquine-sensitive Plasmodium falciparum MRC-02 in human B+ erythrocytes assessed as inhibition of schizont maturation at 0.25 ug/mL after 24 hrs by conventional parasite culture method; format: functional; conditions: MRC-02, 24 h

## CC1=CC(=O)C[C@H]2[C@](C)(CCC3=CCOC3=O)[C@H](CO)CC[C@]12C [GOMPHOSTENIN]
[1]
  IC50: 37.7 µg/mL (≈ 113 µM)
[2]
  IC50: 38.2 µg/mL (≈ 115 µM)

## CC(=O)OC[C@@H]1CC[C@]2(C)C(C)=CC(=O)C[C@H]2[C@]1(C)CCC1=CCOC1=O
[1]
  IC50: 3.2 µg/mL (≈ 8.55 µM)
[2]
  IC50: 3.4 µg/mL (≈ 9.08 µM)

## CCN(CC)CCCC(C)Nc1ccnc2cc(Cl)ccc12 (stereo not given) [CHLOROQUINE]
[3]
  inhibition at 0.25 µg/mL: 100%
